The source of these data is patent US20050271643A1, “Bacterial strains, compositions including same and probiotic use thereof” (priority 2003, published 2005).

The subject of this assay is B. licheniformis PA. Nature of the assay: Antibiogram by disc diffusion method. The assay is classed as cell-based, Bacillus licheniformis. As to conditions: strain B. licheniformis PA. In general terms: Agar diffusion results depend on both activity and mobility in agar.

As to `CC(C)(O/N=C(\C(=O)N[C@@H]1C(=O)N2C(C(=O)[O-])=C(C[n+]3ccccc3)CS[C@H]12)c1csc(N)n1)C(=O)O` [Ceftazidim], the “Sensitivity or resistance of the strain to the antibiotic (in words)” value is reported as “resistant”. Next, `CC1(C)S[C@@H]2[C@H](NC(=O)Cc3ccccc3)C(=O)N2[C@H]1C(=O)O` [Benzylpenicillin]: “resistant”; `C[C@H]1[C@H](NC(=O)/C(=N\OC(C)(C)C(=O)O)c2csc(N)n2)C(=O)N1S(=O)(=O)O` [Aztreonam]: “resistant”. Regarding Polymyxin E, the “Sensitivity or resistance of the strain to the antibiotic (in words)” value is recorded as “resistant”. Under `Cc1onc(-c2ccccc2)c1C(=O)N[C@@H]1C(=O)N2[C@@H]1SC(C)(C)[C@@H]2C(=O)O` [Oxacillin] stands “resistant”.
